According to publication PMC5218480 (PLoS ONE, 2017):

Tested on: MV-4-11 cells
Assay: Gene expression microarray analysis (Affymetrix PrimeView) and GSEA
Format: cell-based, human
Design: RFU PODN (11730768_x_at) / Fold change /veh PODN (11730768_x_at) / RFU LINC00158 (11744669_a_at) / Fold change /veh LINC00158 (11744669_a_at) / RFU DUSP10 (11751237_a_at) / Fold change /veh DUSP10 (11751237_a_at) / RFU ID3 (11757404_x_at) / Fold change /veh ID3 (11757404_x_at) / RFU PLEKHG5 (11737974_s_at) / Fold change /veh PLEKHG5 (11737974_s_at) / RFU LRRC4B (11730491_at) / Fold change /veh LRRC4B (11730491_at) / RFU GIMAP4 (11747438_a_at) / Fold change /veh GIMAP4 (11747438_a_at) / RFU KRT8 (11758183_x_at) / Fold change /veh KRT8 (11758183_x_at) / RFU CNN1 (11734310_a_at) / Fold change /veh CNN1 (11734310_a_at) / RFU VPS37D (11726825_at) / Fold change /veh VPS37D (11726825_at) / RFU C10orf10 (11716522_x_at) / Fold change /veh C10orf10 (11716522_x_at) / RFU KIR2DL2 /// KIR2DL4 /// KIR2DL5A /// KIR2DL5B /// KIR2DS1 /// KIR2DS2 /// KIR2DS3 /// KIR2DS4 /// KIR3DL3 /// KIR3DL3 /// KIR3DS1 (11738374_at) / Fold change /veh KIR2DL2 /// KIR2DL4 /// KIR2DL5A /// KIR2DL5B /// KIR2DS1 /// KIR2DS2 /// KIR2DS3 /// KIR2DS4 /// KIR3DL3 /// KIR3DL3 /// KIR3DS1 (11738374_at) / RFU C1QL1 (11718748_at) / Fold change /veh C1QL1 (11718748_at) / RFU TMPRSS4 (11747572_a_at) / Fold change /veh TMPRSS4 (11747572_a_at) / RFU HAMP (11756126_x_at) / Fold change /veh HAMP (11756126_x_at) / RFU RNFT2 (11725882_a_at) / Fold change /veh RNFT2 (11725882_a_at) / RFU NR4A2 (11747474_a_at) / Fold change /veh NR4A2 (11747474_a_at) / RFU ABCC12 (11746883_a_at) / Fold change /veh ABCC12 (11746883_a_at) / RFU TMEM136 (11760407_x_at) / Fold change /veh TMEM136 (11760407_x_at) / RFU CLDN22 /// WWC2 (11732394_at) / Fold change /veh CLDN22 /// WWC2 (11732394_at) / RFU HLA-DPB1 (11760878_x_at) / Fold change /veh HLA-DPB1 (11760878_x_at) / RFU SPINT1 (11716480_a_at) / Fold change /veh SPINT1 (11716480_a_at) / RFU GAP43 (11754022_s_at) / Fold change /veh GAP43 (11754022_s_at) / RFU A4GNT (11735810_at) / Fold change /veh A4GNT (11735810_at) / RFU PRB3 (11715151_x_at) / Fold change /veh PRB3 (11715151_x_at) / RFU TUBB4B (11761932_at) / Fold change /veh TUBB4B (11761932_at) / RFU CAPN14 (11732068_a_at) / Fold change /veh CAPN14 (11732068_a_at) / RFU TMCC2 (11721928_a_at) / Fold change /veh TMCC2 (11721928_a_at) / RFU IRGQ (11745062_a_at) / Fold change /veh IRGQ (11745062_a_at) / RFU FAM174B (11720279_a_at) / Fold change /veh FAM174B (11720279_a_at) / RFU TMPRSS4 (11748680_a_at) / Fold change /veh TMPRSS4 (11748680_a_at) / RFU FAM212B (11763350_a_at) / Fold change /veh FAM212B (11763350_a_at) / RFU PLEKHG5 (11743358_a_at) / Fold change /veh PLEKHG5 (11743358_a_at) / RFU ZSCAN30 (11745921_a_at) / Fold change /veh ZSCAN30 (11745921_a_at) / RFU CMKLR1 (11741424_a_at) / Fold change /veh CMKLR1 (11741424_a_at) / RFU LOC101060620 /// MAPK8IP1 (11723275_at) / Fold change /veh LOC101060620 /// MAPK8IP1 (11723275_at) / RFU SPTSSB (11747773_x_at) / Fold change /veh SPTSSB (11747773_x_at) / RFU PRSS12 (11739890_at) / Fold change /veh PRSS12 (11739890_at) / RFU BIN1 (11741810_x_at) / Fold change /veh BIN1 (11741810_x_at) / RFU WNT11 (11732464_a_at) / Fold change /veh WNT11 (11732464_a_at) / RFU C10orf10 (11716521_a_at) / Fold change /veh C10orf10 (11716521_a_at) / RFU C5orf56 (11738089_at) / Fold change /veh C5orf56 (11738089_at) / RFU CYB561 (11721691_x_at) / Fold change /veh CYB561 (11721691_x_at) / RFU ANKRD19P (11752326_a_at) / Fold change /veh ANKRD19P (11752326_a_at) / RFU OR2T12 /// OR2T33 /// OR2T8 (11738714_s_at) / Fold change /veh OR2T12 /// OR2T33 /// OR2T8 (11738714_s_at) / RFU VCAN (11748164_a_at) / Fold change /veh VCAN (11748164_a_at) / RFU JSRP1 (11732532_at) / Fold change /veh JSRP1 (11732532_at) / RFU KRTAP10-11 (11738290_x_at) / Fold change /veh KRTAP10-11 (11738290_x_at) / RFU MYO3A (11730013_a_at) / Fold change /veh MYO3A (11730013_a_at) / RFU EBF3 (11725865_a_at) / Fold change /veh EBF3 (11725865_a_at) / RFU CAMK2N1 (11719241_x_at) / Fold change /veh CAMK2N1 (11719241_x_at) / RFU C5orf56 (11738088_a_at) / Fold change /veh C5orf56 (11738088_a_at) / RFU OLFML3 (11715873_a_at) / Fold change /veh OLFML3 (11715873_a_at) / RFU LOC100653217 /// NTM (11731650_a_at) / Fold change /veh LOC100653217 /// NTM (11731650_a_at) / RFU MAPK11 (11762145_a_at) / Fold change /veh MAPK11 (11762145_a_at) / RFU FIZ1 (11724087_x_at) / Fold change /veh FIZ1 (11724087_x_at) / RFU OASL (11726364_x_at) / Fold change /veh OASL (11726364_x_at) / RFU SOX15 (11748057_x_at) / Fold change /veh SOX15 (11748057_x_at) / RFU CD79A (11719716_a_at) / Fold change /veh CD79A (11719716_a_at) / RFU HIST1H1D (11736915_at) / Fold change /veh HIST1H1D (11736915_at) / RFU CASKIN2 (11723855_a_at) / Fold change /veh CASKIN2 (11723855_a_at) / RFU LOC730098 (11760151_x_at) / Fold change /veh LOC730098 (11760151_x_at) / RFU OR4N2 (11742367_at) / Fold change /veh OR4N2 (11742367_at) / RFU PRRT2 (11749266_a_at) / Fold change /veh PRRT2 (11749266_a_at) / RFU SNX32 (11753110_a_at) / Fold change /veh SNX32 (11753110_a_at) / RFU CDHR5 (11726645_a_at) / Fold change /veh CDHR5 (11726645_a_at) / RFU RCAN1 (11760418_a_at) / Fold change /veh RCAN1 (11760418_a_at) / RFU FAM167A (11723789_a_at) / Fold change /veh FAM167A (11723789_a_at) / RFU FAM26E (11764081_at) / Fold change /veh FAM26E (11764081_at) / RFU ISYNA1 (11749810_s_at) / Fold change /veh ISYNA1 (11749810_s_at) / RFU ACY1 (11761880_at) / Fold change /veh ACY1 (11761880_at) / RFU 11764098_at / Fold change /veh 11764098_at / RFU SAMD14 (11745864_x_at) / Fold change /veh SAMD14 (11745864_x_at) / RFU NPB (11741838_a_at) / Fold change /veh NPB (11741838_a_at) / RFU TMPRSS6 (11731388_a_at) / Fold change /veh TMPRSS6 (11731388_a_at) / RFU KRTAP10-2 (11738614_at) / Fold change /veh KRTAP10-2 (11738614_at) / RFU ARHGAP8 /// PRR5-ARHGAP8 (11727945_x_at) / Fold change /veh ARHGAP8 /// PRR5-ARHGAP8 (11727945_x_at) / RFU KRTAP5-7 /// NADSYN1 (11734609_at) / Fold change /veh KRTAP5-7 /// NADSYN1 (11734609_at) / RFU RASL12 (11751679_a_at) / Fold change /veh RASL12 (11751679_a_at) / RFU CDKN2B (11736163_a_at) / Fold change /veh CDKN2B (11736163_a_at) / RFU PRF1 (11729649_at) / Fold change /veh PRF1 (11729649_at) / RFU, ZNF638 /// ZNF638-IT1 / Fold change vs veh, ZNF638 /// ZNF638-IT1 / RFU, PANK3 / Fold change vs veh, PANK3 / RFU, SH3YL1 / Fold change vs veh, SH3YL1 / RFU, ZEB2 / Fold change vs veh, ZEB2 / RFU, NRIP1 / Fold change vs veh, NRIP1 / RFU, PTTG1IP / Fold change vs veh, PTTG1IP / RFU, CAPN2 / Fold change vs veh, CAPN2 / RFU, MED14 / Fold change vs veh, MED14 / RFU, SNORA58 / Fold change vs veh, SNORA58 / RFU, C1orf63 / Fold change vs veh, C1orf63 / RFU, LRRFIP1 / Fold change vs veh, LRRFIP1 / RFU, NDUFAF7 / Fold change vs veh, NDUFAF7 / RFU, SLC12A2 / Fold change vs veh, SLC12A2 / RFU, IBTK / Fold change vs veh, IBTK / RFU, ESF1 / Fold change vs veh, ESF1 / Fold change vs veh, TMEM50B / RFU, TAOK1 / Fold change vs veh, TAOK1 / RFU, ACBD3 / Fold change vs veh, ACBD3 / RFU, TMA16 / Fold change vs veh, TMA16 / RFU, RWDD3 / Fold change vs veh, RWDD3 / RFU, BCAT1 / Fold change vs veh, BCAT1 / RFU, EDEM3 / Fold change vs veh, EDEM3 / RFU, TMEM33 / Fold change vs veh, TMEM33 / RFU, WDR75 / Fold change vs veh, WDR75 / RFU, AHCTF1 / Fold change vs veh, AHCTF1 / RFU, TFRC / Fold change vs veh, TFRC / RFU, ZDHHC17 / Fold change vs veh, ZDHHC17 / RFU, NOM1 / Fold change vs veh, NOM1 / RFU, ARL8B / Fold change vs veh, ARL8B / RFU, ZBTB11 / Fold change vs veh, ZBTB11 / RFU, TAMM41 / Fold change vs veh, TAMM41 / RFU, KIAA1704 /// LOC100996395 / Fold change vs veh, KIAA1704 /// LOC100996395 / RFU, ING1 / Fold change vs veh, ING1 / RFU, TRMT61B / Fold change vs veh, TRMT61B / RFU, FUBP3 / Fold change vs veh, FUBP3 / RFU, TP53 / Fold change vs veh, TP53 / RFU, TNKS2 / Fold change vs veh, TNKS2 / RFU, ZFP14 / Fold change vs veh, ZFP14 / RFU, ACTR2 / Fold change vs veh, ACTR2 / RFU, PPP3R1 / Fold change vs veh, PPP3R1 / RFU, PIK3R1 / Fold change vs veh, PIK3R1 / RFU, HNRNPA1 / Fold change vs veh, HNRNPA1 / RFU, RNF170 / Fold change vs veh, RNF170 / RFU, ZNF28 / Fold change vs veh, ZNF28 / RFU, RNGTT / Fold change vs veh, RNGTT / RFU, OGT / Fold change vs veh, OGT / RFU, BRD1 / Fold change vs veh, BRD1 / RFU, MARS / Fold change vs veh, MARS / RFU, ZNF655 / Fold change vs veh, ZNF655 / RFU, FAHD1 / Fold change vs veh, FAHD1 / RFU, BDP1 / Fold change vs veh, BDP1 / RFU, LRRCC1 / Fold change vs veh, LRRCC1 / RFU, ARID1A / Fold change vs veh, ARID1A / RFU, ZNF146 / Fold change vs veh, ZNF146 / RFU, ZNF330 / Fold change vs veh, ZNF330 / RFU, GPN3 / Fold change vs veh, GPN3 / RFU, C9orf123 / Fold change vs veh, C9orf123 / RFU, N4BP2L2 / Fold change vs veh, N4BP2L2 / RFU, ARFIP1 / Fold change vs veh, ARFIP1 / RFU, FAM179B / Fold change vs veh, FAM179B / RFU, BCL10 / Fold change vs veh, BCL10 / RFU, UHRF1BP1L / Fold change vs veh, UHRF1BP1L / RFU, BET1 / Fold change vs veh, BET1 / RFU, CNOT2 / Fold change vs veh, CNOT2 / RFU, ZNF268 / Fold change vs veh, ZNF268 / Fold change vs veh, ZNF507 / RFU, DGCR2 / Fold change vs veh, DGCR2 / RFU, WDSUB1 / Fold change vs veh, WDSUB1 / Fold change vs veh, HSP90B1 /// MIR3652 / RFU, ADSS / Fold change vs veh, ADSS / RFU, GK / Fold change vs veh, GK / RFU, ZNF148 / Fold change vs veh, ZNF148 / RFU, TAF9 / Fold change vs veh, TAF9 / RFU, SLC1A5 / Fold change vs veh, SLC1A5 / RFU, SLMO2 / Fold change vs veh, SLMO2 / RFU, ABCC4 / Fold change vs veh, ABCC4 / RFU, LOC101060439 /// RAP1B / Fold change vs veh, LOC101060439 /// RAP1B / RFU, RFX7 / Fold change vs veh, RFX7 / RFU, GTPBP10 / Fold change vs veh, GTPBP10 / RFU, CNEP1R1 / Fold change vs veh, CNEP1R1 / RFU, BIVM-ERCC5 /// ERCC5 / Fold change vs veh, BIVM-ERCC5 /// ERCC5 / RFU, ILF3 / Fold change vs veh, ILF3 / RFU 11762660_at / Fold change /veh 11762660_at / RFU VCAN (11757783_s_at) / Fold change /veh VCAN (11757783_s_at) / RFU DDX43 (11728927_at) / Fold change /veh DDX43 (11728927_at) / RFU KRT8 (11758188_x_at) / Fold change /veh KRT8 (11758188_x_at) / RFU NKD1 (11759106_at) / Fold change /veh NKD1 (11759106_at) / RFU SRD5A1 (11742802_a_at) / Fold change /veh SRD5A1 (11742802_a_at) / RFU TPSAB1 /// TPSB2 (11721975_s_at) / Fold change /veh TPSAB1 /// TPSB2 (11721975_s_at) / RFU GSTM3 (11746129_a_at) / Fold change /veh GSTM3 (11746129_a_at) / RFU IL23R (11737362_x_at) / Fold change /veh IL23R (11737362_x_at) / RFU TMEM51 (11727254_a_at) / Fold change /veh TMEM51 (11727254_a_at) / RFU PIWIL2 (11732686_x_at) / Fold change /veh PIWIL2 (11732686_x_at) / RFU ORM1 (11744905_x_at) / Fold change /veh ORM1 (11744905_x_at) / RFU CCDC152 (11743942_at) / Fold change /veh CCDC152 (11743942_at) / RFU ECM1 (11717891_a_at) / Fold change /veh ECM1 (11717891_a_at) / RFU IL23R (11748794_a_at) / Fold change /veh IL23R (11748794_a_at) / RFU TNFAIP8L3 (11732012_x_at) / Fold change /veh TNFAIP8L3 (11732012_x_at) / RFU MBOAT4 (11741988_at) / Fold change /veh MBOAT4 (11741988_at) / RFU 11764193_at / Fold change /veh 11764193_at / RFU TMEM53 (11763286_at) / Fold change /veh TMEM53 (11763286_at) / RFU MAGEB2 (11727129_at) / Fold change /veh MAGEB2 (11727129_at) / RFU TMEM200A (11744735_a_at) / Fold change /veh TMEM200A (11744735_a_at) / RFU CCDC152 (11751479_a_at) / Fold change /veh CCDC152 (11751479_a_at) / RFU FAM211A (11726209_a_at) / Fold change /veh FAM211A (11726209_a_at) / RFU RGS16 (11746705_a_at) / Fold change /veh RGS16 (11746705_a_at) / RFU VCAN (11755009_s_at) / Fold change /veh VCAN (11755009_s_at) / RFU RHOB (11743442_s_at) / Fold change /veh RHOB (11743442_s_at) / RFU RGS16 (11720943_a_at) / Fold change /veh RGS16 (11720943_a_at) / RFU RGS16 (11720944_at) / Fold change /veh RGS16 (11720944_at) / RFU, VPS4B / Fold change vs veh, VPS4B / RFU, CREB1 / Fold change vs veh, CREB1 / RFU, DNAJC13 / Fold change vs veh, DNAJC13 / RFU, GNAQ / Fold change vs veh, GNAQ / RFU, CDK5R1 / Fold change vs veh, CDK5R1 / RFU, ZRANB3 / Fold change vs veh, ZRANB3 / RFU, CUL4A / Fold change vs veh, CUL4A / RFU, CCNY / Fold change vs veh, CCNY / RFU, UFL1 / Fold change vs veh, UFL1 / RFU, COG3 / Fold change vs veh, COG3 / RFU, DIAPH2 / Fold change vs veh, DIAPH2 / RFU, SKA2 / Fold change vs veh, SKA2 / RFU, AFF3 / Fold change vs veh, AFF3 / RFU, LMF1 / Fold change vs veh, LMF1 / RFU, IPO11 / Fold change vs veh, IPO11 / RFU, DFFB / Fold change vs veh, DFFB / RFU, FOXP1 / Fold change vs veh, FOXP1 / RFU, CARD8 / Fold change vs veh, CARD8 / RFU, STRN3 / Fold change vs veh, STRN3 / RFU, ADK / Fold change vs veh, ADK / RFU, RASSF2 / Fold change vs veh, RASSF2 / RFU, WIPF1 / Fold change vs veh, WIPF1 / RFU, LARP1B / Fold change vs veh, LARP1B / RFU, RASA1 / Fold change vs veh, RASA1 / RFU, RB1 / Fold change vs veh, RB1 / RFU, PPFIA1 / Fold change vs veh, PPFIA1 / RFU, MAT2A / Fold change vs veh, MAT2A / RFU, CCT5 / Fold change vs veh, CCT5 / RFU, WDR92 / Fold change vs veh, WDR92 / RFU, CUX1 / Fold change vs veh, CUX1 / RFU, TTC7A / Fold change vs veh, TTC7A / RFU, TMEM135 / Fold change vs veh, TMEM135 / RFU, DEPTOR / Fold change vs veh, DEPTOR / RFU, CPM / Fold change vs veh, CPM / RFU, DNAJB6 / Fold change vs veh, DNAJB6 / RFU, CACNA2D3 / Fold change vs veh, CACNA2D3 / RFU, DTX4 / Fold change vs veh, DTX4 / RFU, TFCP2 / Fold change vs veh, TFCP2 / RFU, GMCL1 /// GMCL1P1 / Fold change vs veh, GMCL1 /// GMCL1P1 / RFU, AEBP2 / Fold change vs veh, AEBP2 / RFU, SNHG1 /// SNORD22 /// SNORD25 /// SNORD26 /// SNORD27 /// SNORD28 /// SNORD29 /// SNORD31 / Fold change vs veh, SNHG1 /// SNORD22 /// SNORD25 /// SNORD26 /// SNORD27 /// SNORD28 /// SNORD29 /// SNORD31 / Fold change (Aza/veh), C12orf56 (ProbeSet 11735607_a_at) / Fold change (ACY-1035/veh), C12orf56 (ProbeSet 11735607_a_at) / Fold change (Aza/veh), FGFR1OP (ProbeSet 11751329_s_at) / Fold change (ACY-1035/veh), FGFR1OP (ProbeSet 11751329_s_at) / Fold change (Aza/veh), VPS36 (ProbeSet 11739960_a_at) / Fold change (ACY-1035/veh), VPS36 (ProbeSet 11739960_a_at) / RFU SYPL1 (11715823_x_at) / Fold change /veh SYPL1 (11715823_x_at) / RFU IGFBP7 (11715501_s_at) / Fold change /veh IGFBP7 (11715501_s_at) / RFU REEP3 (11722064_at) / Fold change /veh REEP3 (11722064_at) / RFU IGLL1 (11728026_x_at) / Fold change /veh IGLL1 (11728026_x_at): dose or concentration left out as unconfirmed
Conditions: ProbeSet 11716331_a_at; LIST D

Nc1ccc(-c2cccs2)cc1NC(=O)c1ccc2c(c1)cc(C1CC1)n2CCN1CCOCC1 [ACY-1035] was tested, and the “Fold change vs veh, DNAJB6” value was 0.86.
